# Test results as given in ChEMBL document CHEMBL6177997, “Design, Synthesis, and Evaluation of Novel ROCK Inhibitors for Glaucoma Treatment: Insights into In Vitro and In Vivo Efficacy and Safety” (J Med Chem, 2025).
# Calls of active or inactive are those of the source. The rule behind the calls is not given here.
# Experiments:
# HTM [1] = test: Inhibition of H2O2-induced ROS production in human HTM cells assessed as decrease in green fluorescence at 1 uM preincubated for 1 hrs followed by H2O2 induction for 2 hrs and measured after 30 mins by DCFH-DA based fluorescence microscopic analysis; type: functional, cell-based; details: time 3.5 hrs
# HTM [2] = test: Induction of morphological changes in human HTM cells at 3 uM incubated for 10 hrs by light microscopic analysis; type: functional, cell-based
# [3] = Induction of apoptosis in H2O2-induced human HTM cells at 1 uM pretreated with compound for 1 hr followed by H2O2 induction and measured after 2 hrs by Annexin V AF647/PI staining based flow cytometry analysis (reference value: 13.47%); type: functional; details: time 3 hrs
# HTM [4] = test: Inhibition of paxillin expression in human HTM cells at 5 uM; type: functional, cell-based
# HTM [5] = test: Inhibition of TGF-beta2 induced collagen 1A expression in human HTM cells at 1 uM pretreated with compound for 2 hrs followed by TGF-beta2 induction and measured after 24 hrs; type: functional, cell-based; details: time 26.0 hrs
# HTM [6] = test: Induction of F-actin depolymerization in human HTM cells at 5 uM incubated for 4 hrs by rhodamine-phalloidin staining based analysis; type: cell-based
# HTM [7] = test: Inhibition of TGF-beta2 induced alpha-SMA expression in human HTM cells at 1 uM pretreated with compound for 2 hrs followed by TGF-beta2 induction and measured after 24 hrs; type: functional, cell-based; details: time 26.0 hrs
# Mitochondrial membrane = test: Induction of mitochondrial membrane potential in human HTM cells at 1 uM incubated for 24 hrs by JC-1 staining based flow cytometry analysis
smiles,measurement,setting,value
C[C@H]1CNCCCN1S(=O)(=O)c1cccc2cncc(F)c12,inhibition,HTM [1],Active
same,Activity,HTM [2],Active
same,Activity,[3],39.46%
same,inhibition,HTM [4],inactive
same,inhibition,HTM [5],Active
same,Activity,HTM [6],Active
same,inhibition,HTM [7],Active
same,Activity,Mitochondrial membrane,inactive
